Measurements as given in ChEMBL document CHEMBL1697723, “A predictive ligand-based Bayesian model for human drug-induced liver injury” (Drug Metab Dispos, 2010).
Residues, ends and D or L forms follow the SMILES beside them.

The compounds below were run on Hepatotoxicity (assay: Human drug-induced liver injury (DILI) modelling dataset from Ekins et al). Settings: not given.

SMILES	Hepatotoxicity
CC[C@H]1OC(=O)[C@H](C)[C@@H](O[C@H]2C[C@@](C)(OC)[C@@H](O)[C@H](C)O2)[C@H](C)[C@@H](O[C@@H]2O[C@H](C)C[C@H](N(C)C)[C@H]2O)[C@](C)(O)C[C@@H](C)CN(C)[C@H](C)[C@@H](O)[C@]1(C)O [AZITHROMYCIN]	DILI negative (test set)
CC1(C)S[C@@H]2[C@H](NC(=O)[C@H](NC(=O)N3CCNC3=O)c3ccccc3)C(=O)N2[C@H]1C(=O)[O-].[Na+] [AZLOCILLIN SODIUM]	DILI negative (test set)
C[C@H]1[C@H](NC(=O)/C(=N\OC(C)(C)C(=O)O)c2csc(N)n2)C(=O)N1S(=O)(=O)O [AZTREONAM]	DILI negative (training set)
CC[C@H](C)[C@H](N)C1=N[C@H](C(=O)N[C@@H](CC(C)C)C(=O)N[C@H](CCC(=O)O)C(=O)N[C@H](C(=O)N[C@H]2CCCCNC(=O)[C@H](CC(N)=O)NC(=O)[C@@H](CC(=O)O)NC(=O)[C@H](Cc3cnc[nH]3)NC(=O)[C@@H](Cc3ccccc3)NC(=O)[C@H]([C@@H](C)CC)NC(=O)[C@@H](CCCN)NC2=O)[C@@H](C)CC)CS1 [BACITRACIN] (HELM PEPTIDE1{[CC[C@H](C)[C@H](N)C1=N[C@H](C(=O)[*:2])CS1].L.[dE].I.K.[NCCC[C@@H](N[*:1])C(=O)[*:2]].I.[dF].H.[dD].N}$PEPTIDE1,PEPTIDE1,5:R3-11:R2$$$V2.0)	DILI negative (training set)
CN(C)C(=O)Oc1cc(OC(=O)N(C)C)cc(C(O)CNC(C)(C)C)c1 (stereo unspecified) [BAMBUTEROL]	DILI negative (training set)
CCC(=O)OCC(=O)[C@@]1(OC(=O)CC)[C@@H](C)C[C@H]2[C@@H]3CCC4=CC(=O)C=C[C@]4(C)[C@@]3(Cl)[C@@H](O)C[C@@]21C [BECLOMETHASONE DIPROPIONATE]	DILI negative (training set)
CCOC(=O)[C@H](CCc1ccccc1)N[C@H]1CCc2ccccc2N(CC(=O)O)C1=O [BENAZEPRIL]	DILI negative (training set)
CC(C(=O)O)c1ccc2oc(-c3ccc(Cl)cc3)nc2c1 (stereo unspecified) [BENOXAPROFEN]	DILI positive (test set)
CCc1oc2ccccc2c1C(=O)c1cc(Br)c(O)c(Br)c1 [BENZBROMARONE]	DILI positive (training set)
CC(C)COCC(CN(Cc1ccccc1)c1ccccc1)N1CCCC1.Cl.O (stereo unspecified) [BEPRIDIL HYDROCHLORIDE]	DILI positive (training set)
CNCCc1ccccn1.Cl.Cl [BETAHISTINE HYDROCHLORIDE]	DILI positive (training set)
C[N+](C)(C)CC(=O)O.[Cl-] [BETAINE HYDROCHLORIDE]	DILI negative (test set)
C[C@H]1C[C@H]2[C@@H]3CCC4=CC(=O)C=C[C@]4(C)[C@@]3(F)[C@@H](O)C[C@]2(C)[C@@]1(O)C(=O)CO [BETAMETHASONE]	DILI negative (training set)
CC(C)(Oc1ccc(CCNC(=O)c2ccc(Cl)cc2)cc1)C(=O)O [BEZAFIBRATE]	DILI negative (training set)
CC(O)(CS(=O)(=O)c1ccc(F)cc1)C(=O)Nc1ccc(C#N)c(C(F)(F)F)c1 (stereo unspecified) [BICALUTAMIDE]	DILI positive (training set)
O=C(O)CCCC[C@@H]1SC[C@@H]2NC(=O)N[C@@H]21 [BIOTIN]	DILI negative (training set)
CCCC[C@@H](CC)COC(=O)c1ccccc1C(=O)OC[C@@H](CC)CCCC [BIS(2-ETHYLHEXYL)PHTHALATE]	DILI positive (test set)
Oc1c(Cl)cc(Cl)cc1Sc1cc(Cl)cc(Cl)c1O [BITHIONOL]	DILI positive (test set)
COc1ccccc1Oc1c(NS(=O)(=O)c2ccc(C(C)(C)C)cc2)nc(-c2ncccn2)nc1OCCO [BOSENTAN]	DILI positive (test set)
Nc1c(CC(=O)O)cccc1C(=O)c1ccc(Br)cc1 [BROMFENAC]	DILI positive (test set)

SMILES	Hepatotoxicity
Brc1ccccc1 [BROMOBENZENE]	DILI positive (test set)
NCCBr [BROMOETHANAMINE]	DILI positive (test set)
CN(C)CCC(c1ccc(Br)cc1)c1ccccn1.O=C(O)/C=C\C(=O)O (stereo unspecified) [BROMPHENIRAMINE MALEATE]	DILI negative (training set)
CCCCNc1cc(C(=O)O)cc(S(N)(=O)=O)c1Oc1ccccc1 [BUMETANIDE]	DILI positive (training set)
CCCCN1CCCCC1C(=O)Nc1c(C)cccc1C (stereo unspecified) [BUPIVACAINE]	DILI negative (training set)
CC(NC(C)(C)C)C(=O)c1cccc(Cl)c1.Cl (stereo unspecified) [BUPROPION HYDROCHLORIDE]	DILI negative (training set)
O=C1CC2(CCCC2)CC(=O)N1CCCCN1CCN(c2ncccn2)CC1 [BUSPIRONE]	DILI negative (test set)
CS(=O)(=O)OCCCCOS(C)(=O)=O [BUSULFAN]	DILI positive (training set)
Clc1ccc(CCC(Cn2ccnc2)Sc2c(Cl)cccc2Cl)cc1.O=[N+]([O-])O (stereo unspecified) [BUTOCONAZOLE NITRATE]	DILI negative (test set)
Cc1cc(C(C)(C)C)c(O)c(C(C)(C)C)c1 [BUTYLATED HYDROXYTOLUENE]	DILI positive (test set)
Cn1c(=O)c2c(ncn2C)n(C)c1=O [CAFFEINE]	DILI negative (test set)
C=C1CC[C@H](O)C/C1=C/C=C1\CCC[C@]2(C)[C@@H]([C@H](C)CCCC(C)(C)O)CC[C@@H]12.O [CALCIFEDIOL]	DILI positive (test set)
CC(C)(CO)[C@@H](O)C(=O)NCCC(=O)[O-].CC(C)(CO)[C@@H](O)C(=O)NCCC(=O)[O-].[Ca+2] [CALCIUM PANTOTHENATE]	DILI negative (training set)
COc1cc(CNC(=O)CCCC/C=C/C(C)C)ccc1O [CAPSAICIN]	DILI negative (test set)
C[C@H](CS)C(=O)N1CCC[C@H]1C(=O)O [CAPTOPRIL]	DILI positive (training set)
NC(=O)N1c2ccccc2C=Cc2ccccc21 [CARBAMAZEPINE]	DILI positive (test set)
COC(=O)Nc1nc2ccccc2[nH]1 [CARBENDAZIM]	DILI positive (training set)
CC1(C)[C@@H](OC(=O)CCC(=O)[O-])CC[C@]2(C)[C@H]3C(=O)C=C4[C@@H]5C[C@@](C)(C(=O)[O-])CC[C@]5(C)CC[C@@]4(C)[C@]3(C)CC[C@@H]12.[Na+].[Na+] [CARBENOXOLONE SODIUM]	DILI negative (training set)
C[C@@](Cc1ccc(O)c(O)c1)(NN)C(=O)O.O [CARBIDOPA]	DILI negative (training set)
ClC(Cl)(Cl)Cl [CARBON TETRACHLORIDE]	DILI positive (test set)

SMILES	Hepatotoxicity
CC1=C(C(=O)O)N2C(=O)[C@@H](NC(=O)[C@H](N)c3ccc(O)cc3)[C@H]2SC1 [CEFADROXIL]	DILI positive (test set)
Cn1nnnc1SCC1=C(C(=O)[O-])N2C(=O)[C@@H](NC(=O)[C@H](O)c3ccccc3)[C@H]2SC1.[Na+] [CEFAMANDOLE SODIUM]	DILI positive (test set)
CCN1CCN(C(=O)N[C@@H](C(=O)N[C@@H]2C(=O)N3C(C(=O)O)=C(CSc4nnnn4C)CS[C@H]23)c2ccc(O)cc2)C(=O)C1=O.O.O [CEFOPERAZONE DIHYDRATE]	DILI negative (training set)
CO[C@@]1(NC(=O)C2SC(=C(C(N)=O)C(=O)O)S2)C(=O)N2C(C(=O)O)=C(CSc3nnnn3C)CS[C@@H]21 (stereo partly specified) [CEFOTETAN]	DILI negative (test set)
CN(C)CCn1nnnc1SCC1=C(C(=O)O)N2C(=O)[C@@H](NC(=O)Cc3csc(N)n3)[C@H]2SC1.Cl.Cl [CEFOTIAM HYDROCHLORIDE]	DILI positive (test set)
CO[C@@]1(NC(=O)Cc2cccs2)C(=O)N2C(C(=O)O)=C(COC(N)=O)CS[C@@H]21 [CEFOXITIN]	DILI positive (test set)
CC(C)(O/N=C(\C(=O)N[C@@H]1C(=O)N2C(C(=O)[O-])=C(C[n+]3ccccc3)CS[C@H]12)c1csc(N)n1)C(=O)O [CEFTAZIDIME]	DILI negative (test set)
O=C(Cc1cccs1)N[C@@H]1C(=O)N2C(C(=O)[O-])=C(C[n+]3ccccc3)CS[C@H]12 [CEPHALORIDINE]	DILI positive (test set)
CC(=O)OCC1=C(C(=O)[O-])N2C(=O)[C@@H](NC(=O)Cc3cccs3)[C@H]2SC1.[Na+] [CEPHALOTHIN SODIUM]	DILI positive (test set)
CC(=O)OCC1=C(C(=O)[O-])N2C(=O)[C@@H](NC(=O)CSc3ccncc3)[C@H]2SC1.[Na+] [CEPHAPIRIN SODIUM]	DILI negative (test set)
CC1=C(C(=O)O)N2C(=O)[C@@H](NC(=O)[C@H](N)C3=CCC=CC3)[C@H]2SC1 [CEPHRADINE]	DILI negative (test set)
COCc1c(C(C)C)nc(C(C)C)c(/C=C/[C@@H](O)C[C@@H](O)CC(=O)O)c1-c1ccc(F)cc1 [CERIVASTATIN]	DILI positive (test set)
C[C@H](CCC(=O)O)[C@H]1CC[C@H]2[C@@H]3[C@H](O)C[C@@H]4C[C@H](O)CC[C@]4(C)[C@H]3CC[C@]12C [CHENODIOL]	DILI positive (training set)
CCCCCCCCCCCCCCCC(=O)OC[C@@H](NC(=O)C(Cl)Cl)[C@H](O)c1ccc([N+](=O)[O-])cc1 [CHLORAMPHENICOL PALMITATE]	DILI positive (training set)
CCN(CC)CCCC(C)Nc1ccnc2cc(Cl)ccc12.O=P(O)(O)O.O=P(O)(O)O (stereo unspecified) [CHLOROQUINE PHOSPHATE]	DILI negative (test set)
CN(C)CCC(c1ccc(Cl)cc1)c1ccccn1.O=C(O)/C=C\C(=O)O (stereo unspecified) [CHLORPHENIRAMINE MALEATE]	DILI positive (training set)
CN(C)CCCN1c2ccccc2Sc2ccc(Cl)cc21 [CHLORPROMAZINE]	DILI positive (training set)
CCCNC(=O)NS(=O)(=O)c1ccc(Cl)cc1 [CHLORPROPAMIDE]	DILI positive (test set)

Same assay, conditions: Liver

SMILES	Hepatotoxicity
Cl[C@H]1[C@H](Cl)[C@@H](Cl)[C@H](Cl)[C@@H](Cl)[C@@H]1Cl [BETA-HEXACHLOROCYCLOHEXANE]	DILI positive (training set)
Cc1ccc(-c2cc(C(F)(F)F)nn2-c2ccc(S(N)(=O)=O)cc2)cc1 [CELECOXIB]	DILI positive (test set)
ClC(Cl)Cl [CHLOROFORM]	DILI positive (test set)
